Experiments:
[1] = system: Rattus norvegicus; experiment: In vivo antagonist activity for PAF-Induced cutaneous vascular permeability in the rat; assay type: functional
[2] = system: Mus musculus; experiment: In vivo antagonist activity against PAF-Induced paw edema in the mouse; assay type: functional
[3] = target: Platelet-activating factor receptor (Oryctolagus cuniculus); experiment: Functional inhibition of PAF-induced platelet degranulation

Structure (SMILES): COC(=O)n1cc(C(=O)[C@@H]2CSC(c3cccnc3)N2)c2ccccc21 (some centres undefined)
- ED50 [1]: 5.19 mg/kg
- ED50 [2]: 1.97 mg/kg

Structure (SMILES): CN(C)C(=O)n1cc(C(=O)[C@@H]2CSC(c3cccnc3)N2)c2cccc(OCc3ccccc3)c21 (some centres undefined)
- ED50 [2]: 0.091 mg/kg

Structure (SMILES): CN(C)C(=O)n1cc(C(=O)[C@@H]2CSC(c3cccnc3)N2)c2ccc(F)cc21 (some centres undefined)
- ED50 [1]: 0.945 mg/kg

Structure (SMILES): CC(C)(C)OC(=O)n1cc(C(=O)[C@@H]2CSC(c3cccnc3)N2)c2ccc(OCc3ccccc3)cc21 (some centres undefined)
- ED50 [1]: 0.429 mg/kg
- ED50 [2]: 1.3 mg/kg
- Kb [3]: 1.19 nM

Structure (SMILES): Cc1ccc2c(C(=O)[C@@H]3CSC(c4cccnc4)N3)cn(C(=O)OC(C)(C)C)c2c1 (some centres undefined)
- ED50 [1]: 5.22 mg/kg
- ED50 [2]: 1.19 mg/kg

Structure (SMILES): O=C(c1ccccc1)c1cccc(NC(=O)c2ccn3c2CSC3c2cccnc2)c1 (centres undefined)
- ED50 [1]: 2.27 mg/kg
- ED50 [2]: 4.07 mg/kg

Structure (SMILES): CC(C)(C)NC(=O)n1cc(C(=O)[C@@H]2CSC(c3cccnc3)N2)c2ccccc21 (some centres undefined)
- ED50 [1]: 6.28 mg/kg

Structure (SMILES): O=C(c1cn(C(=O)N2CCOCC2)c2ccccc12)[C@@H]1CSC(c2cccnc2)N1 (some centres undefined)
- ED50 [2]: 2.63 mg/kg

Structure (SMILES): CCN(CC)C(=O)n1cc(C(=O)[C@@H]2CSC(c3cccnc3)N2)c2ccccc21 (some centres undefined)
- ED50 [1]: 0.616 mg/kg
- ED50 [2]: 0.52 mg/kg

Structure (SMILES): CN(C(=O)n1cc(C(=O)[C@@H]2CSC(c3cccnc3)N2)c2ccccc21)c1ccccc1 (some centres undefined)
- Kb [3]: 1.93 nM

Structure (SMILES): Cc1nnc2n1C1=C(C(c3ccccc3Cl)=NC2C)C2CCN(C(=O)C3CC3)CC2S1 (centres undefined)
- ED50 [1]: 0.15 mg/kg
- ED50 [2]: 1.44 mg/kg

Structure (SMILES): CN(C)C(=O)n1cc(C(=O)[C@@H]2CSC(c3cccnc3)N2)c2ccccc21 (some centres undefined)
- ED50 [1]: 1.3 mg/kg
- ED50 [2]: 0.979 mg/kg
- Kb [3]: 0.291 nM

Structure (SMILES): O=C(c1cn(Cc2ccccc2)c2ccccc12)[C@@H]1CSC(c2cccnc2)N1 (some centres undefined)
- Kb [3]: 22.1 nM

Structure (SMILES): CN(C)C(=O)n1cc(C(=O)[C@@H]2CSC(c3cccnc3)N2)c2ccc(-c3cccnc3)cc21 (some centres undefined)
- ED50 [1]: 4.48 mg/kg

Structure (SMILES): O=C(c1c[nH]c2cc(F)ccc12)[C@@H]1CSC(c2cccnc2)N1 (some centres undefined)
- ED50 [1]: 2.69 mg/kg

Structure (SMILES): O=C(O)C(=O)O.O=C(c1cn(C(=O)OCc2ccccc2)c2ccccc12)[C@@H]1CSC(c2cccnc2)N1 (some centres undefined)
- ED50 [2]: 1.79 mg/kg

Structure (SMILES): Cc1ccc2c(c1)c(C(=O)[C@@H]1CSC(c3cccnc3)N1)c(C)n2C(=O)OC(C)(C)C.O=C(O)C(=O)O (some centres undefined)
- ED50 [1]: 9.51 mg/kg

Structure (SMILES): O=C(c1c[nH]c2cc(Br)ccc12)[C@@H]1CSC(c2cccnc2)N1 (some centres undefined)
- ED50 [1]: 1.07 mg/kg

Structure (SMILES): CCCOc1c(OC)cc([C@@H]2CC[C@@H](c3cc(OC)c(OC)c(OC)c3)O2)cc1S(=O)(=O)CCO
- ED50 [1]: 1.89 mg/kg
- ED50 [2]: 11.5 mg/kg

Structure (SMILES): CN(C)C(=O)n1cc(C(=O)[C@@H]2CSC(c3cccnc3)N2)c2ccc(OCc3ccc(F)cc3)cc21 (some centres undefined)
- ED50 [1]: 0.355 mg/kg

Structure (SMILES): CN(C)C(=O)n1cc(C(=O)[C@@H]2CSC(c3cccnc3)N2)c2ccc(-c3ccc(F)cc3)cc21 (some centres undefined)
- ED50 [1]: 0.76 mg/kg

Structure (SMILES): O=C([C@@H]1CSC(c2cccnc2)N1)n1ccc2ccc(OCc3ccccc3)cc21 (some centres undefined)
- Kb [3]: 12 nM

Structure (SMILES): CN(C)C(=O)n1cc(C(=O)[C@@H]2CSC(c3cccnc3)N2)c2ccc(Oc3ccc(F)cc3)cc21 (some centres undefined)
- ED50 [1]: 0.108 mg/kg

Structure (SMILES): CN(C)C(=O)n1cc(C(=O)[C@@H]2CSC(c3cccnc3)N2)c2ccc(OCc3ccccc3)cc21.O=C(O)C(=O)O (some centres undefined)
- ED50 [1]: 0.53 mg/kg
- ED50 [2]: 0.079 mg/kg

Structure (SMILES): CN(C)C(=O)n1cc(C(=O)[C@@H]2CSC(c3cccnc3)N2)c2ccc(C(=O)c3ccccc3)cc21 (some centres undefined)
- ED50 [1]: 0.521 mg/kg

Structure (SMILES): O=C(c1c[nH]c2cc(OCc3ccccc3)ccc12)[C@@H]1CSC(c2cccnc2)N1 (some centres undefined)
- ED50 [1]: 0.526 mg/kg
- ED50 [2]: 1.47 mg/kg
- Kb [3]: 0.0929 nM

Structure (SMILES): Cc1nnc2n1-c1sc3c(c1C(c1ccccc1Cl)=NC2)CC(C(=O)N1CCOCC1)C3 (centres undefined) [BEPAFANT]
- ED50 [1]: 0.423 mg/kg
- ED50 [2]: 0.459 mg/kg

Structure (SMILES): Cc1[nH]c2ccccc2c1C(=O)[C@@H]1CSC(c2cccnc2)N1 (some centres undefined)
- Kb [3]: 1.99 nM

Structure (SMILES): CC(C)(C)OC(=O)n1cc(C(=O)[C@@H]2CSC(c3cccnc3)N2)c2ccccc21 (some centres undefined)
- ED50 [1]: 4.96 mg/kg
- ED50 [2]: 0.372 mg/kg
- Kb [3]: 0.111 nM

Structure (SMILES): O=C(c1cn(C(=O)N2CCOCC2)c2cc(OCc3ccccc3)ccc12)[C@@H]1CSC(c2cccnc2)N1 (some centres undefined)
- ED50 [1]: 0.762 mg/kg
- ED50 [2]: 3.7 mg/kg

Structure (SMILES): COc1ccc2c(C(=O)[C@@H]3CSC(c4cccnc4)N3)c[nH]c2c1 (some centres undefined)
- ED50 [2]: 3.7 mg/kg

Structure (SMILES): CN(C)C(=O)n1cc(C(=O)[C@@H]2CSC(c3cccnc3)N2)c2ccc(-c3ccccc3)cc21 (some centres undefined)
- ED50 [1]: 1.12 mg/kg
- ED50 [2]: 0.808 mg/kg

Structure (SMILES): CNC(=O)n1cc(C(=O)[C@@H]2CSC(c3cccnc3)N2)c2ccccc21.O=C(O)C(=O)O.O=C(O)C(=O)O (some centres undefined)
- ED50 [1]: 1.68 mg/kg

Structure (SMILES): Cl.Cl.O=C(C1CSC(c2cccnc2)N1)n1ccc2c(Cl)cccc21 (centres undefined)
- ED50 [1]: 15 mg/kg

Structure (SMILES): CCS(=O)(=O)n1cc(C(=O)[C@@H]2CSC(c3cccnc3)N2)c2ccc(OCc3ccccc3)cc21 (some centres undefined)
- ED50 [1]: 0.862 mg/kg

Structure (SMILES): CN(C)C(=O)n1cc(C(=O)[C@@H]2CSC(c3cccnc3)N2)c2ccc(C#Cc3ccccc3)cc21 (some centres undefined)
- ED50 [1]: 0.885 mg/kg

Structure (SMILES): Cc1nnc2n1-c1sc(CCC(=O)N3CCOCC3)cc1C(c1ccccc1Cl)=NC2 [APAFANT]
- ED50 [1]: 22.3 mg/kg
- ED50 [2]: 2.2 mg/kg

Structure (SMILES): CN(C)C(=O)Cn1cc(C(=O)[C@@H]2CSC(c3cccnc3)N2)c2ccccc21 (some centres undefined)
- ED50 [1]: 0.384 mg/kg

Structure (SMILES): O=C(C1CSC(c2cccnc2)N1)n1ccc2cc(OCc3ccccc3)ccc21 (centres undefined)
- Kb [3]: 1.95 nM

Structure (SMILES): COc1ccc2c(C(=O)[C@@H]3CSC(c4cccnc4)N3)cn(C(=O)OC(C)(C)C)c2c1.O=C(O)C(=O)O (some centres undefined)
- ED50 [1]: 1.9 mg/kg

Structure (SMILES): CN(C)C(=O)n1cc(C(=O)[C@@H]2CSC(c3cccnc3)N2)c2ccc(Cl)cc21 (some centres undefined)
- ED50 [1]: 1.6 mg/kg

Structure (SMILES): O=C(c1c[nH]c2cc(-c3ccccc3)ccc12)[C@@H]1CSC(c2cccnc2)N1 (some centres undefined)
- ED50 [1]: 2.3 mg/kg
- ED50 [2]: 5.39 mg/kg

Structure (SMILES): CCS(=O)(=O)n1cc(C(=O)[C@@H]2CSC(c3cccnc3)N2)c2ccccc21 (some centres undefined)
- Kb [3]: 1.59 nM

Structure (SMILES): O=C(O)C(=O)O.O=C(c1c[nH]c2ccccc12)[C@@H]1CSC(c2cccnc2)N1 (some centres undefined)
- ED50 [1]: 3.65 mg/kg
- ED50 [2]: 5.32 mg/kg

Structure (SMILES): Cc1c(C(=O)[C@@H]2CSC(c3cccnc3)N2)c2ccccc2n1C(=O)OC(C)(C)C.O=C(O)C(=O)O (some centres undefined)
- ED50 [2]: 0.873 mg/kg

Structure (SMILES): O=C(c1ccccc1)c1cccc(NC(=O)[C@@H]2CSC(c3cccnc3)N2)c1 (some centres undefined)
- ED50 [1]: 12.9 mg/kg
- ED50 [2]: 1.73 mg/kg
- Kb [3]: 4.14 nM

Structure (SMILES): CCOC(=O)C1=C(c2ccc(-n3c(C)nc4cnccc43)cc2)NC(C)=C(C(=O)Nc2ccccn2)C1c1ccccc1Cl (centres undefined)
- ED50 [1]: 0.232 mg/kg

Structure (SMILES): O=C(c1cn(C(=O)c2ccc(Cl)cc2)c2ccccc12)[C@@H]1CSC(c2cccnc2)N1 (some centres undefined)
- ED50 [1]: 3.19 mg/kg

Structure (SMILES): CC(C)(C)C(=O)n1cc(C(=O)[C@@H]2CSC(c3cccnc3)N2)c2ccccc21 (some centres undefined)
- ED50 [2]: 15.8 mg/kg

Structure (SMILES): O=C(c1c[nH]c2cc(OCc3ccc(F)cc3)ccc12)[C@@H]1CSC(c2cccnc2)N1 (some centres undefined)
- ED50 [1]: 0.273 mg/kg

Structure (SMILES): COc1cc(C(=O)c2cccc(NC(=O)[C@@H]3CSC(c4cccnc4)N3)c2)cc(OC)c1OC (some centres undefined)
- ED50 [1]: 2.06 mg/kg
- ED50 [2]: 0.476 mg/kg
- Kb [3]: 0.415 nM

Structure (SMILES): O=C(O)C(F)(F)F.O=C(c1c[nH]c2c(OCc3ccccc3)cccc12)[C@@H]1CSC(c2cccnc2)N1 (some centres undefined)
- ED50 [1]: 1.41 mg/kg
- ED50 [2]: 6.98 mg/kg
- Kb [3]: 0.571 nM

Source: ChEMBL document CHEMBL1127801, “3-(2-(3-Pyridinyl)thiazolidin-4-oyl)indoles, a novel series of platelet activating factor antagonists” (J Med Chem, 1994)
